{
  "source": "ChEMBL document CHEMBL1914316",
  "about": "“Conversion of systemically-distributed triazole-based stearoyl-CoA desaturase (SCD) uHTS hits into liver-targeted SCD inhibitors” (Bioorg Med Chem Lett, 2011)",
  "key": {"Acyl-CoA desaturase 1 [1]": {"biological_target": "T1, Acyl-CoA desaturase 1 (Rattus norvegicus, UniProt P07308)", "T1 sequence (P07308 whole entry)": "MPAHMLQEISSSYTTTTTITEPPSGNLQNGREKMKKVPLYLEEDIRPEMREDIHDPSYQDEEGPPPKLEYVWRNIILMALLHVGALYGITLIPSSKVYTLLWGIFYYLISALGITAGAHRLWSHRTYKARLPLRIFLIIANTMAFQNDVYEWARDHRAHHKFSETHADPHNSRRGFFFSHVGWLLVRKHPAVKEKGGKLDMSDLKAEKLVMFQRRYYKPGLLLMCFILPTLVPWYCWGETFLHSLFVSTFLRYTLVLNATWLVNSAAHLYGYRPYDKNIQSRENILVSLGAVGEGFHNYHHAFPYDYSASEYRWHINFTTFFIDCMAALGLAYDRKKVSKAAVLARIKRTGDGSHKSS", "experiment": "Inhibition of rat SCD by rat microsomal assay"}, "[2]": {"experiment": "Drug uptake in C57BL/6 mouse harderian glands at 10 mg/kg, po after 6 hrs", "format": "ADME, organism-based, C57BL6, Harderian gland", "set-up": "dose 10 mg/kg, route oral", "conditions": "read-out: Drug uptake"}, "Mus musculus [3]": {"system": "Mus musculus", "experiment": "Inhibition of SCD in C57BL/6 mouse liver assessed as conversion of [1-(14)C]-stearic acid to [1-(14)C]-oleic acid at 10 mg/kg, po after 3 hrs", "format": "functional", "conditions": "C57BL/6, Liver"}, "[4]": {"experiment": "Drug uptake in C57BL/6 mouse plasma at 10 mg/kg, po after 6 hrs", "format": "ADME, organism-based, C57BL6", "set-up": "dose 10 mg/kg, route oral", "conditions": "read-out: Drug uptake"}, "Mus musculus [5]": {"system": "Mus musculus", "experiment": "Ratio of drug uptake in liver to harderian glands of C57BL/6 mouse at 10 mg/kg, po after 6 hrs", "conditions": "in vivo"}, "[6]": {"experiment": "Drug uptake in C57BL/6 mouse liver at 10 mg/kg, po after 6 hrs", "format": "ADME, organism-based, C57BL6", "set-up": "dose 10 mg/kg, route oral", "conditions": "read-out: Drug uptake"}, "Nucleic Acid": {"system": "Nucleic Acid", "experiment": "Ratio of drug uptake in liver to skin of C57BL/6 mouse at 10 mg/kg, po after 6 hrs", "format": "ADME, organism-based, C57BL6", "set-up": "dose 10 mg/kg, route oral", "conditions": "in vivo"}, "[7]": {"experiment": "Drug uptake in C57BL/6 mouse liver at 30 mg/kg, po after 3 hrs", "format": "ADME, organism-based, C57BL6", "set-up": "dose 30 mg/kg, route oral", "conditions": "read-out: Drug uptake"}, "Acyl-CoA desaturase 1 [8]": {"biological_target": "T1, Acyl-CoA desaturase 1", "experiment": "Inhibition of SCD in rat hepatocytes assessed as conversion of [14C]-stearic acid to [14C]-oleic acid preincubated for 15 mins measured after 1 hrs by scintillation counting", "format": "cell-based, Hepatocyte"}, "Stearoyl-CoA desaturase": {"biological_target": "T2, Stearoyl-CoA desaturase (Homo sapiens, UniProt O00767)", "T2 sequence (O00767 whole entry)": "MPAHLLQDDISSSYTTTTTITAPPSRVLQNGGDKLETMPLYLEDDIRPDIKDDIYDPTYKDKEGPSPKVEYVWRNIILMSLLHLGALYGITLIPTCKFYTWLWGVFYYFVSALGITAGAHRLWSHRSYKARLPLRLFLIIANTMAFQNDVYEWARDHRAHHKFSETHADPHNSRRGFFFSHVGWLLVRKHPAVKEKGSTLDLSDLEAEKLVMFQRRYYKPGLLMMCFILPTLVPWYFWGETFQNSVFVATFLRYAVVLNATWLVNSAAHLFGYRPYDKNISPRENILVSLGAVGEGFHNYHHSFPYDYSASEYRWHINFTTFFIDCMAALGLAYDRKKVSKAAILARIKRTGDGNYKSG", "experiment": "Inhibition of SCD in human HepG2 cells assessed as conversion of [1-(14)C]-stearic acid to (14)C-oleic acid", "format": "cell-based"}, "[9]": {"experiment": "Drug uptake in C57BL/6 mouse skin at 10 mg/kg, po after 6 hrs", "format": "ADME, organism-based, C57BL6, Zone of skin", "set-up": "dose 10 mg/kg, route oral", "conditions": "read-out: Drug uptake"}, "Mus musculus [10]": {"system": "Mus musculus", "experiment": "Inhibition of SCD in C57BL/6 mouse liver assessed as conversion of [1-(14)C]-stearic acid to [1-(14)C]-oleic acid at 30 mg/kg, po after 3 hrs", "format": "functional"}, "[11]": {"experiment": "Inhibition of mouse SCD"}},
  "note": "Active and inactive are the calls of the source. The rule behind the calls is not given here.",
  "data": [
    {"molecule": "O=C(O)Cn1nnc(-c2cn(Cc3cc(Br)c(Br)c(Br)c3)nn2)n1", "values": [
      {"measurement": "IC50", "setting": "Acyl-CoA desaturase 1 [1]", "result": "> 20000", "unit": "nM"}
    ]},
    {"molecule": "O=C(O)Cn1nnc(-c2cnc(-c3cn(Cc4cc(Cl)c(Cl)c(Cl)c4)nn3)nc2)n1", "values": [
      {"measurement": "IC50", "setting": "Acyl-CoA desaturase 1 [1]", "result": 343, "unit": "nM"}
    ]},
    {"molecule": "O=C(O)Cn1nnc(-c2ccc(-c3cn(Cc4cc(Cl)c(Cl)c(Cl)c4)nn3)nn2)n1", "values": [
      {"measurement": "IC50", "setting": "Acyl-CoA desaturase 1 [1]", "result": 1810, "unit": "nM"}
    ]},
    {"molecule": "NC(=O)c1nnn(Cc2cc(Cl)c(Cl)c(Cl)c2)c1N", "values": [
      {"measurement": "IC50", "setting": "Acyl-CoA desaturase 1 [1]", "result": 12, "unit": "nM"}
    ]},
    {"molecule": "O=C(O)Cn1nnc(-c2ccnc(-c3cn(Cc4cc(Cl)c(Cl)c(Cl)c4)nn3)c2)n1", "values": [
      {"measurement": "IC50", "setting": "Acyl-CoA desaturase 1 [1]", "result": 1310, "unit": "nM"}
    ]},
    {"molecule": "O=C(O)Cn1nnc(-c2cnc(-c3cn(Cc4cc(Br)c(Br)c(Br)c4)nn3)cn2)n1", "values": [
      {"measurement": "IC50", "setting": "Acyl-CoA desaturase 1 [1]", "result": 1250, "unit": "nM"}
    ]},
    {"molecule": "O=C(O)Cn1nnc(-c2cn(CCCc3cc(Br)c(Br)c(Br)c3)nn2)n1", "values": [
      {"measurement": "IC50", "setting": "Acyl-CoA desaturase 1 [1]", "result": 911, "unit": "nM"}
    ]},
    {"molecule": "NC(=O)c1cn(Cc2cc(Br)c(Br)c(Br)c2)nn1", "values": [
      {"measurement": "concentration at 6 h", "setting": "[2]", "result": 6630, "unit": "nM"},
      {"measurement": "inhibition in vivo at 10 mg/kg", "setting": "Mus musculus [3]", "result": 46, "unit": "%"},
      {"measurement": "concentration at 6 h", "setting": "[4]", "result": 740, "unit": "nM"},
      {"measurement": "Ratio", "setting": "Mus musculus [5]", "result": 0.4},
      {"measurement": "concentration at 6 h", "setting": "[6]", "result": 2690, "unit": "nM"},
      {"measurement": "IC50", "setting": "Acyl-CoA desaturase 1 [1]", "result": 19, "unit": "nM"},
      {"measurement": "Ratio", "setting": "Nucleic Acid", "result": 3.6},
      {"measurement": "concentration at 3 h", "setting": "[7]", "result": 14000, "unit": "nM"},
      {"measurement": "IC50", "setting": "Acyl-CoA desaturase 1 [8]", "result": 10100, "unit": "nM"},
      {"measurement": "IC50", "setting": "Stearoyl-CoA desaturase", "result": 760, "unit": "nM"},
      {"measurement": "concentration at 6 h", "setting": "[9]", "result": 740, "unit": "nM"}
    ]},
    {"molecule": "O=C(O)Cn1nnc(-c2cncc(-c3cn(Cc4cc(Br)c(Br)c(Br)c4)nn3)c2)n1", "values": [
      {"measurement": "inhibition", "setting": "Mus musculus [10]", "result": "inactive"},
      {"measurement": "concentration at 6 h", "setting": "[6]", "result": 470, "unit": "nM"},
      {"measurement": "IC50", "setting": "Acyl-CoA desaturase 1 [1]", "result": 56, "unit": "nM"},
      {"measurement": "concentration at 3 h", "setting": "[7]", "result": 900, "unit": "nM"},
      {"measurement": "IC50", "setting": "Acyl-CoA desaturase 1 [8]", "result": 694, "unit": "nM"},
      {"measurement": "IC50", "setting": "Stearoyl-CoA desaturase", "result": 6310, "unit": "nM"}
    ]},
    {"molecule": "O=C(O)CCCCc1nc(-c2cn(Cc3cc(Br)c(Br)c(Br)c3)nn2)no1", "values": [
      {"measurement": "IC50", "setting": "Acyl-CoA desaturase 1 [1]", "result": 5250, "unit": "nM"}
    ]},
    {"molecule": "O=C(O)Cn1nnc(-c2cn(CCc3cc(Br)c(Br)c(Br)c3)nn2)n1", "values": [
      {"measurement": "IC50", "setting": "Acyl-CoA desaturase 1 [1]", "result": 19900, "unit": "nM"}
    ]},
    {"molecule": "O=C(O)Cn1nnc(-c2cc(-c3cn(Cc4cc(Cl)c(Cl)c(Cl)c4)nn3)ccn2)n1", "values": [
      {"measurement": "IC50", "setting": "Acyl-CoA desaturase 1 [1]", "result": 719, "unit": "nM"}
    ]},
    {"molecule": "O=C(O)CCc1nc(-c2cn(Cc3cc(Br)c(Br)c(Br)c3)nn2)no1", "values": [
      {"measurement": "IC50", "setting": "Acyl-CoA desaturase 1 [1]", "result": 552, "unit": "nM"}
    ]},
    {"molecule": "O=C(O)Cn1nnc(-c2cc(-c3cn(Cc4cc(Br)c(Br)c(Br)c4)nn3)no2)n1", "values": [
      {"measurement": "inhibition in vivo at 30 mg/kg", "setting": "Mus musculus [10]; C57BL/6, Liver", "result": 30, "unit": "%"},
      {"measurement": "Ratio", "setting": "Mus musculus [5]", "result": 100},
      {"measurement": "concentration at 6 h", "setting": "[6]", "result": 1660, "unit": "nM"},
      {"measurement": "IC50", "setting": "Acyl-CoA desaturase 1 [1]", "result": 21, "unit": "nM"},
      {"measurement": "concentration at 3 h", "setting": "[7]", "result": 8400, "unit": "nM"},
      {"measurement": "IC50", "setting": "[11]", "result": 10, "unit": "nM"},
      {"measurement": "IC50", "setting": "Acyl-CoA desaturase 1 [8]", "result": 212, "unit": "nM"},
      {"measurement": "IC50", "setting": "Stearoyl-CoA desaturase", "result": 37700, "unit": "nM"}
    ]},
    {"molecule": "O=C(O)CCCc1nc(-c2cn(Cc3cc(Br)c(Br)c(Br)c3)nn2)no1", "values": [
      {"measurement": "IC50", "setting": "Acyl-CoA desaturase 1 [1]", "result": 216, "unit": "nM"}
    ]},
    {"molecule": "NC(=O)c1nnn(Cc2cc(Br)c(Br)c(Br)c2)c1N", "values": [
      {"measurement": "IC50", "setting": "Acyl-CoA desaturase 1 [1]", "result": 6, "unit": "nM"}
    ]},
    {"molecule": "O=C(O)CCCCCc1nc(-c2cn(Cc3cc(Br)c(Br)c(Br)c3)nn2)no1", "values": [
      {"measurement": "IC50", "setting": "Acyl-CoA desaturase 1 [1]", "result": 8320, "unit": "nM"}
    ]},
    {"molecule": "O=C(O)Cn1nnc(-c2cnc(-c3cn(Cc4cc(Cl)c(Cl)c(Cl)c4)nn3)s2)n1", "values": [
      {"measurement": "inhibition", "setting": "Mus musculus [10]", "result": "inactive"},
      {"measurement": "concentration at 6 h", "setting": "[6]", "result": 330, "unit": "nM"},
      {"measurement": "IC50", "setting": "Acyl-CoA desaturase 1 [1]", "result": 49, "unit": "nM"},
      {"measurement": "concentration at 3 h", "setting": "[7]", "result": 4100, "unit": "nM"},
      {"measurement": "IC50", "setting": "Acyl-CoA desaturase 1 [8]", "result": 975, "unit": "nM"},
      {"measurement": "IC50", "setting": "Stearoyl-CoA desaturase", "result": "> 100000", "unit": "nM"}
    ]}
  ]
}
